Source: the RepoRT retention time repository

Test: Agilent ZORBAX 300 SB-C18, 150 × 1 mm, 3.5 µm; A: water + 0.01% heptafluorobutyric acid; B: acetonitrile + 0.01% heptafluorobutyric acid; gradient (min/%B) 0/0 100/90
Conditions: stereoisomer not certain

SMILES	LC retention time
CC(C)CNC(=O)c1cccc2c1-c1ccccc1C2=O	13.3 min
CN(C)c1ccc(N)cc1	6.86 min
Cc1cc(C)nc(C)c1	7.46 min
CC(C)(C=O)CN1CCCC1	6.76 min
Cc1ccc2c(c1)C1CN(C)CCC1N2C(=O)CCCCCN1C(=O)c2ccccc2C1=O (stereo unspecified)	10.6 min
c1ccc(CN2CCN(Cc3ccccc3)C2c2cccs2)cc1	11 min
CNC1CCCCC1	7.45 min
C=CCC1NC(C)(C)Cc2ccccc21 (stereo unspecified)	9 min
C1=CCNC1	2.99 min
CC[N+](CC)(CC)Cc1ccccc1	8.32 min
Cc1ccc2cc(C(=O)O)c(=O)[nH]c2c1	9.64 min
CCCc1cc2c(cc1N)OCO2	9.27 min
CC(C)OC(C)n1cccc1-c1ccccc1 (stereo unspecified)	17.7 min
Nc1ccncn1	3.44 min
CC1(C)CC(=O)C2=C(C1)NCN(Cc1ccccc1)C2	8.44 min
CCc1ccc(C2CC(=O)N(N(C)C)C3=C2C(=O)CCC3)cc1 (stereo unspecified)	15.1 min
c1ccc2c(c1)CCc1c-2[nH]c2ccccc12	17.1 min
c1ccc(N2CCNCC2)cc1	8 min
CCOC(=O)CN1C(=O)N(C)Cc2ccccc21	11.4 min

SMILES	LC retention time
O=c1[nH]c2ccccc2c(=O)n1CCO	7.39 min
CCCN1CCCC(C(N)=O)C1 (stereo unspecified)	6.49 min
COc1ccc2c(c1)C(C)CC(C)(C)N2 (stereo unspecified)	9.43 min
CCC(C)C(N)C(=O)N1CCCC1C(=O)NC(C(=O)O)C(C)CC (stereo unspecified)	8.56 min
Cc1cc(C(N)=O)c2ccccc2n1	7 min
CNCc1ccccc1	7.43 min
Cc1ccc(-c2cc(C)c(C)cc2C)nc1	10.6 min
c1ccc(Cc2nc3ccccc3[nH]2)cc1	9.23 min
Cc1sc(C)c(CNCC(C)C)c1CNCC(C)C	8.93 min
C=CC1CN2CCC1CC2C(O)c1ccnc2ccccc12 (stereo unspecified)	8.84 min
Cn1c(=O)c2ccccc2n(CCN)c1=O	7.65 min
Cc1cc(C)[nH]n1	6.99 min
CC(C)NC(C)C	7.12 min
NCCCc1ccccn1	6.8 min
CCn1c(-c2ccccc2)csc1=Nc1ccc(C)c(C)c1	12.5 min
O=CC1CCN(Cc2ccccc2)CC1	7.84 min
CN(N)c1nc(N2CCCC2)nc(N2CCCC2)n1	10.3 min
CCn1c(=O)n(CC)c2cc(C=O)ccc21	10.2 min
CCNC(=O)C(=O)NCCc1c[nH]c2ccccc12	10.8 min

SMILES	LC retention time
c1cc(CCCc2ccncc2)ccn1	7.37 min
COc1ccc2c3c1OC1C(=O)CCC4(O)C(C2)N(C)CCC314 (stereo unspecified)	8.39 min
Cn1cc(C(=O)O)c2ccccc21	9.81 min
CCNC(=S)NNC(=S)NCc1ccccc1	10.9 min
CC(=CCc1ccccc1)N=Nc1nc(=S)[nH][nH]1	10.6 min
CN(C)c1ccc(C=NNC(=O)C(c2ccccc2)c2ccccc2)cc1	15.4 min
CCOC(=O)c1c(N)n(C(C)=O)[nH]c1=O	6.93 min
CN(C)C(=O)C1OC(C)(C)OC1C(=O)N(C)C (stereo unspecified)	8.25 min
Cc1ccc2c(CN3CCNCC3)cc(=O)oc2c1	8.81 min
COc1cc(C(=O)Nc2ccc(OCC(N)=O)cc2)cc(OC)c1OC	9.54 min
Cc1ccc(CCC(=O)O)cc1N	7.58 min
OCCCc1cn(-c2ccccc2)c2ccccc12	14.8 min
CCN1CCN(Cc2cc(C)cc(C=O)c2C)CC1	9.37 min
CC(C)c1ccc(N)cc1	9 min
CC(C)n1c2ccccc2c2ccccc21	18.2 min
Cc1nn(-c2ccc(NC(=O)c3ccco3)cc2)c(=O)c2ccccc12	12 min
c1ccc(CN(c2ccccn2)c2ccccn2)cc1	11 min
COc1ccc(C(CNC(=O)c2n[nH]c(=O)c3ccccc23)Cc2ccccc2)cc1OC (stereo unspecified)	13.3 min
Cc1ccc(N2C(=O)NC(=O)C(=Cc3cc(C)n(-c4ccccc4)c3C)C2=O)cc1	15 min

The remaining lines, values ahead:

LC retention time	SMILES
11.3 min	Cc1ccc(-c2nn(CC(=O)Nc3cccnc3)c(=O)c3ccccc23)cc1
9.54 min	CCCc1ccccc1N
7 min	CNCc1cccs1
14.4 min	Cc1cc(O)c(C(C)C)cc1CNC(=O)c1ccccc1O
17 min	CC(=O)OC1(C(C)=O)CCC2C3CC(C)C4=CC(=O)CCC4(C)C3CCC21C (stereo unspecified)
10.7 min	Cc1cc(C)nc(Nc2ccccc2C)n1
13.8 min	COc1ccc(C=Cc2nc(=O)c3ccccc3o2)cc1
8.69 min	CN(C)c1cccc(C(=O)O)c1
6.73 min	C#CCN(CC)CC#C
10.2 min	CCCn1cnc2c1c(=O)n(CCCCC(C)=O)c(=O)n2C
13.7 min	CC(C)(C)c1ccc(C(CC(=O)O)NC(=O)c2ccccc2)cc1 (stereo unspecified)
7.38 min	O=c1[nH][nH]c2c1CCCC2
8.55 min	CN1C(=O)C(CC(=O)NC2CCCCC2)N(C)C1=O (stereo unspecified)
6.36 min	Cn1c(N)nc2nc[nH]c2c1=O
12.4 min	CCCCCCCCC(N)=O
9.1 min	O=C(CC1NC(=O)N(C2CCCCC2)C1=O)Nc1cccnc1 (stereo unspecified)
11.9 min	O=C(O)CCc1ccc(-c2ccccc2)[nH]1
4.35 min	CC1=NCCC1
10.7 min	COc1ccc(N2C(=O)CC(C3CCCO3)C2=O)cc1 (stereo unspecified)
7.03 min	c1ccc(CCNc2ccncn2)nc1
8.54 min	NCCCN1CCc2ccccc21
8.29 min	Cc1cc(C)cc(N)c1
5.64 min	OCc1cccc(CO)n1
7.72 min	OCCNCc1ccccc1
14.4 min	c1ccc2c(Sc3nccc4ccccc34)nccc2c1

LC retention time	SMILES
7.66 min	CC(=O)c1c[nH]cc1C
10.2 min	Cc1ccc2cc(-c3ccncc3)[nH]c2c1
4.72 min	CCOC(N)=O
11.8 min	c1ccc(C(NCc2cccs2)c2ccccc2)cc1
3.45 min	O=CN1CCN(C=O)CC1
6.56 min	c1cncc(-c2cn[nH]c2)c1
10.6 min	Cc1ccc(C(=O)Cn2c(=N)n(C)c3ccccc32)cc1
8.93 min	Cc1[nH][nH]c(=O)c1CCC(=O)NN=Cc1c(C)[nH]c2ccccc12
7.6 min	CNCCCCCCN(C)CCCCCCNC
17 min	O=C1c2ccccc2C(=O)c2cc(C(=O)N3CCC(c4ccccc4)CC3)ccc21
8.35 min	CC(=O)Nc1cccc(C(C)=O)c1
9.56 min	COc1ccc(C=NNC(N)=O)c(OC)c1
7.8 min	COC(=O)Cn1c(C)cc(C)c(N)c1=O
8.04 min	CC1CC(C)(C)Nc2ccc(O)cc21 (stereo unspecified)
16.2 min	CC(C=Cc1ccccc1)=NNC(=O)C(C)Nc1ccc2ccccc2c1 (stereo unspecified)
6.79 min	C#CC(C)(C)NC(C)=O
15.1 min	COC(=O)CCc1c(COC(C)=O)[nH]c(C(=O)OCc2ccccc2)c1C
12.5 min	CC(C)c1ccc(CC(NC(=O)c2ccccc2)C(=O)NCC(=O)O)cc1 (stereo unspecified)
11.1 min	CC(CCc1ccccc1)NC(=S)Nc1cccnc1 (stereo unspecified)
7.27 min	c1cnc2[nH]ccc2c1
12 min	CCCCCCCCCCN(C)C
8.51 min	O=C1Cc2ccccc2N1
12.3 min	Cc1ccc(C=C2CN(C)CC(=Cc3ccc(C)cc3)C2=O)cc1
13.1 min	Cc1ccc(-n2cccc2)c(O)c1
6.66 min	NCCCn1ccnc1

LC retention time	SMILES
11.6 min	CN(C)CCC=C1c2ccccc2C=Cc2ccccc21
13.9 min	CC(=NNC(=O)CNC(=O)C(c1ccccc1)c1ccccc1)c1ccc(N(C)C)cc1
10.1 min	COc1ccc(NC(=O)c2cc3ccccc3oc2=N)cc1
10.2 min	O=C(CCN1C(=O)c2ccccc2C1=O)Nc1cccc(C(=O)O)c1
9.42 min	NC(=O)CCCc1c[nH]c2ccccc12
7.57 min	CCCC(=O)C1CCNCC1
8.22 min	O=C1Nc2ccccc2C1CCCO (stereo unspecified)
7.94 min	CC(C)C1CN(Cc2ccco2)CCN1 (stereo unspecified)
10 min	O=C1CCCN1c1ccccc1
7.77 min	C#CC1(N)CCCCC1
8.52 min	Cc1ccc(-n2ccnc2)cc1
13.9 min	O=Cc1c(-c2ccccc2)c(C=O)n2ccccc12
11.7 min	CCN(CC)C(=O)c1cc(NC(=O)c2ccc3c(c2)c(=O)n(C)c(=O)n3C)c(OC)c(OC)c1
18.1 min	c1ccc(C2=Nc3ccccc3Oc3ccccc32)cc1
7.63 min	Nc1ccc(N2CCCC2=O)cc1N1CCCC1=O
16.8 min	O=C1c2ccccc2C(O)(c2ccccc2)N1C(c1ccccc1)c1ccccc1 (stereo unspecified)
3.12 min	O=C(O)c1cccc(C(=O)O)n1
9.7 min	CC(C)CN(CC(C)C)CC(C)C
14.2 min	Cc1ccc(Nc2cc(=O)oc3ccccc23)cc1C
6.98 min	NCCN1CCCCC1
7.51 min	O=C(O)CCc1nn2c3ccccc3n(CC(=O)O)c2nc1=O
9.88 min	Nc1cc(C(=O)N2CCCCC2)cc(C(=O)N2CCCCC2)c1
17 min	CCOC(=O)c1c(C)n(-c2ccccc2)c2ccc(OC(C)=O)cc12
11.9 min	COc1ccc(C2CC(=O)Nc3cc4c(cc32)OCO4)cc1 (stereo unspecified)
